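Here, GI50 denotes the concentration required for 50% inhibition of growth. TGI: concentration producing complete growth inhibition.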
Experiments:
Assay in all cases: growth of human tumour cells (NCI), 384-well format
NCI-H23 lung = system: NCI-H23 lung
DU-145 prostate = system: DU-145 prostate
TK-10 renal = system: TK-10 renal
OVCAR-8 ovarian = system: OVCAR-8 ovarian
RXF 393 renal = system: RXF 393 renal
IGROV1 ovarian = system: IGROV1 ovarian
SR leukemia = system: SR leukemia
KM12 colon = system: KM12 colon
HCT-116 colon = system: HCT-116 colon
OVCAR-3 ovarian = system: OVCAR-3 ovarian
MOLT-4 leukemia = system: MOLT-4 leukemia
HOP-62 NSCLC = system: HOP-62 NSCLC
PC-3 prostate = system: PC-3 prostate
T-47D breast = system: T-47D breast
SNB-19 CNS = system: SNB-19 CNS
MDA-MB-468 breast = system: MDA-MB-468 breast
HCT-15 colon = system: HCT-15 colon
MALME-3M melanoma = system: MALME-3M melanoma
UO-31 renal = system: UO-31 renal
SK-MEL-28 melanoma = system: SK-MEL-28 melanoma
SK-MEL-5 melanoma = system: SK-MEL-5 melanoma
SF-539 CNS = system: SF-539 CNS
UACC-62 melanoma = system: UACC-62 melanoma
OVCAR-4 ovarian = system: OVCAR-4 ovarian
SF-268 CNS = system: SF-268 CNS
OVCAR-5 ovarian = system: OVCAR-5 ovarian
K-562 leukemia = system: K-562 leukemia
SN12C renal = system: SN12C renal
RPMI-8226 leukemia = system: RPMI-8226 leukemia
ACHN renal = system: ACHN renal
786-0 renal = system: 786-0 renal
BT-549 breast = system: BT-549 breast
LOX IMVI melanoma = system: LOX IMVI melanoma
HS 578T breast = system: HS 578T breast
COLO 205 colon = system: COLO 205 colon
MCF7 breast = system: MCF7 breast
SK-OV-3 ovarian = system: SK-OV-3 ovarian
SK-MEL-2 melanoma = system: SK-MEL-2 melanoma
NCI-H322M lung = system: NCI-H322M lung
A549 NSCLC = system: A549 NSCLC
HOP-92 NSCLC = system: HOP-92 NSCLC
NCI-H522 lung = system: NCI-H522 lung
SF-295 CNS = system: SF-295 CNS
SNB-75 CNS = system: SNB-75 CNS
M14 melanoma = system: M14 melanoma
NCI/ADR-RES ovarian = system: NCI/ADR-RES ovarian
U251 glioblastoma = system: U251 glioblastoma

NC(=O)c1nc(-c2c(F)cccc2Cl)oc1Nc1ccc(C(=O)N2CCOCC2)cc1
GI50 (NCI-H23 lung): 0.6 µM
TGI (NCI-H23 lung): 4.43 µM
GI50 (DU-145 prostate): 4.44 µM
TGI (DU-145 prostate): 23.2 µM
GI50 (TK-10 renal): 2.58 µM
TGI (TK-10 renal): 8.79 µM
GI50 (OVCAR-8 ovarian): 4.51 µM
TGI (OVCAR-8 ovarian): 18.7 µM
GI50 (RXF 393 renal): 1.1 µM
TGI (RXF 393 renal): 3.3 µM
GI50 (IGROV1 ovarian): 1.4 µM
TGI (IGROV1 ovarian): 3.17 µM
GI50 (SR leukemia): 0.189 µM
TGI (SR leukemia): 0.342 µM
GI50 (KM12 colon): 0.17 µM
TGI (KM12 colon): 3.89 µM
GI50 (HCT-116 colon): 0.957 µM
TGI (HCT-116 colon): 13.8 µM
GI50 (OVCAR-3 ovarian): 1.6 µM
TGI (OVCAR-3 ovarian): 7.65 µM
GI50 (MOLT-4 leukemia): 0.182 µM
TGI (MOLT-4 leukemia): 0.436 µM
GI50 (HOP-62 NSCLC): 2.41 µM
TGI (HOP-62 NSCLC): 19.6 µM
GI50 (PC-3 prostate): 4.22 µM
TGI (PC-3 prostate): 27.2 µM
GI50 (T-47D breast): 0.682 µM
TGI (T-47D breast): 20.7 µM
GI50 (SNB-19 CNS): 3.46 µM
TGI (SNB-19 CNS): 24.9 µM
GI50 (MDA-MB-468 breast): 1.5 µM
TGI (MDA-MB-468 breast): 4.23 µM
GI50 (HCT-15 colon): 2.41 µM
TGI (HCT-15 colon): 19 µM
GI50 (MALME-3M melanoma): 4.68 µM
TGI (MALME-3M melanoma): 12.3 µM
GI50 (UO-31 renal): 0.171 µM
TGI (UO-31 renal): 0.322 µM
GI50 (SK-MEL-28 melanoma): 14.2 µM
TGI (SK-MEL-28 melanoma): > 90.9 µM
GI50 (SK-MEL-5 melanoma): 13.6 µM
TGI (SK-MEL-5 melanoma): 34.7 µM
GI50 (SF-539 CNS): 1.45 µM
TGI (SF-539 CNS): 7.64 µM
GI50 (UACC-62 melanoma): 5.96 µM
TGI (UACC-62 melanoma): 20.4 µM
GI50 (OVCAR-4 ovarian): 2.09 µM
TGI (OVCAR-4 ovarian): 6.3 µM
GI50 (SF-268 CNS): 2.45 µM
TGI (SF-268 CNS): 11.2 µM
GI50 (OVCAR-5 ovarian): 2.47 µM
TGI (OVCAR-5 ovarian): 19.6 µM
GI50 (K-562 leukemia): 1.62 µM
TGI (K-562 leukemia): 15 µM
GI50 (SN12C renal): 1.64 µM
TGI (SN12C renal): 13.6 µM
GI50 (RPMI-8226 leukemia): 0.444 µM
TGI (RPMI-8226 leukemia): 4.28 µM
GI50 (ACHN renal): 0.779 µM
TGI (ACHN renal): 3.6 µM
GI50 ([…]-0 renal): 3.95 µM
TGI (786-0 renal): 9.55 µM
GI50 (BT-549 breast): 2 µM
TGI (BT-549 breast): 5.84 µM
GI50 (LOX IMVI melanoma): 0.869 µM
TGI (LOX IMVI melanoma): 2.39 µM
GI50 (HS 578T breast): 1.34 µM
TGI (HS 578T breast): 3.75 µM
GI50 (COLO 205 colon): 1.13 µM
TGI (COLO 205 colon): 7.44 µM
GI50 (MCF7 breast): 0.708 µM
TGI (MCF7 breast): 16.8 µM
GI50 (SK-OV-3 ovarian): 6.28 µM
TGI (SK-OV-3 ovarian): 28.6 µM
GI50 (SK-MEL-2 melanoma): 15.3 µM
TGI (SK-MEL-2 melanoma): 30.1 µM
GI50 (NCI-H322M lung): 6.5 µM
TGI (NCI-H322M lung): 23.6 µM
GI50 (A549 NSCLC): 0.686 µM
TGI (A549 NSCLC): 5.44 µM
GI50 (HOP-92 NSCLC): 0.576 µM
TGI (HOP-92 NSCLC): 2.35 µM
GI50 (NCI-H522 lung): 0.795 µM
TGI (NCI-H522 lung): 3.76 µM
GI50 (SF-295 CNS): 2.95 µM
TGI (SF-295 CNS): > 45.9 µM
GI50 (SNB-75 CNS): 1.78 µM
TGI (SNB-75 CNS): 4.24 µM
GI50 (M14 melanoma): 17.3 µM
TGI (M14 melanoma): > 47.5 µM
GI50 (NCI/ADR-RES ovarian): 2.46 µM
TGI (NCI/ADR-RES ovarian): 7.79 µM
GI50 (U251 glioblastoma): 2.59 µM
TGI (U251 glioblastoma): 16 µM
